This is an account of results in patent EP0097031B1, “Nonapeptide and decapeptide analogs of LHRH useful as LHRH antagonists, their preparation and compositions containing them” (SYNTEX (U.S.A.) INC., priority 1982, dated 1988).

dPhe(4-Cl) = N[C@H](Cc1ccc(Cl)cc1)C(=O)O; d2Nal = N[C@H](Cc1ccc2ccccc2c1)C(=O)O; dDeh = not defined here

For this series, the system named is female mice. The series is described as follows: acute subcutaneous toxicity in mice (21-day observation). As to conditions: administered subcutaneously to each of 6 female mice, 0.3 m.g. per animal (or 12 mg/kg body weight). It is filed as in vivo. The protocol: Compounds 8,16,18,19 and 24 from Example 8 were administered subcutaneously to each of 6 female mice at a dose level of 0.3 m.g. per animal (or 12 mg/kg body weight). During an observation period of 21 days, no deaths were recorded in any of the treatment groups.
The acute subcutaneous LD50 in mice is thus greater than 12 mg/kg for these compounds.
With “N-Ac-D-Nal(2)-D-p-Cl-Phe-D-Trp-Ser-Tyr-D-Deh-Leu-Arg-Pro-D-AlaNH2 [Compound 19]”, the “deaths recorded during an observation period of 21 days” value is “no deaths”.

For the substance “N-Ac-D-Nal(2)-D-p-Cl-Phe-D-Trp-Ser-Tyr-D-Deh-Leu-Arg-Pro-GlyNH2 ({Ac-d2Nal-dPhe(4-Cl)-dW-Ser-Tyr-dDeh}-LRPG-NH2; reading uncertain; also: printed as N-Ac-D-Nal(2)-D-p-Cl-Phe-D-Trp-Ser-Tyr-D-Deh-Leu-Arg-Pro-GlyNH2) [Compound 18]”, the “deaths recorded during an observation period of 21 days” value is listed as “no deaths”.

Take “N-Ac-D-Nal(2)-D-p-F-Phe-D-Trp-Ser-Tyr-D-Deh-Leu-Arg-Pro-GlyNH2 [Compound 16]”: the “deaths recorded during an observation period of 21 days” value was “no deaths”.

“N-Ac-D-p-Cl-Phe-D-p-Cl-Phe-D-Trp-Ser-Tyr-D-Dph-Leu-Arg-Pro-D-AlaNH2 [Compound 8]”: the “deaths recorded during an observation period of 21 days” value is given as “no deaths”.
